Experimental data as given in article PMC11790914, “Chemogenomics for steroid hormone receptors (NR3)” (Communications Chemistry, 2025).
“And” between values parts separate entries of the source, which are not always exact repeats. Equal values may be shown once.

Experiments:
[1] = target: T1, ABL1 (Homo sapiens, UniProt P00519); assay: Liability panel screening by DSF: ABL1; assay type: binding; details: DSF, 20 µM, n=2; read-out: Mean ΔTM ABL1
T1 construct: made in house
Experimental: (§1) Reference ligands are listed in the methods section.
(§2) In-house produced recombinantly expressed proteins[62] of the liability panel targets were diluted in a buffer containing 10 mM HEPES (pH 7.5) and 500 mM NaCl to a concentration of 2 µM. SYPRO Orange (Invitrogen, Carlsbad, California, USA; #S6650) as a fluorescence probe was added at a 1:1000 dilution to the proteins. […] Temperature-dependent unfolding profiles were measured on a QuantStudio™ 5 real-time PCR machine (Thermo Fisher Scientific, Waltham, Massachusetts, USA; #A28140). […] The temperature was increased 3 °C per minute to a maximum temperature of 85 °C. Experiments were run as technical duplicates. […] Data were analyzed with the internal Thermal Shift Software (version 1.4, Thermo Fisher Scientific) using the Boltzmann equitation to determine the inflection point of the transition curve. Differences in melting temperature are given as ∆Tm in K. […]
(§3) scanning fluorimetry (DSF).
(§4) a concentration of 20 µM.

[2] = system: NF-κB activity in HEK293 NF-κB reporter cells; assay: NF-kB activity assay (GFP reporter, ionomycin/PMA); assay type: cell-based; details: n=3
Experimental: Fig. 6 Application of the NR3 CG set.
After 24 h, cells were incubated with the test compounds solubilized with 0.1% DMSO in the same medium without puromycin. After 4 h incubation, ionomycin (100 ng/mL) and phorbol-12-myristat-13-acetate (PMA, 10 ng/mL) was added, and the cells were imaged for confluence and GFP expression every 90 min. over 24 h using a Tecan SPARK Cyto (Tecan). The number of GFP expressing cells was normalized to confluence in each sample. Each sample was repeated in three biologically independent experiments.

[3] = system: HEK293T cells; assay: Cytotoxicity: apoptosis induction (caspase-3/7 DEVD fluorogenic DNA dye); details: 10 µM; HEK293T, 24 h; apoptotic cell count normalized to 0.1% DMSO; single replicates
[4] = target: T2, BRD4 (Homo sapiens, UniProt O60885); assay: Liability panel screening by DSF: BRD4; assay type: binding; details: DSF, 20 µM, n=2; read-out: Mean ΔTM BRD4
T2 construct: This panel comprised ten highly ligandable kinases and bromodomains; made in house
Experimental: as §1, §2, §3, §4

[5] = target: T3, GSK3B (Homo sapiens, UniProt P49841); assay: Liability panel screening by DSF: GSK3B; assay type: binding; details: DSF, 20 µM, n=2; read-out: Mean ΔTM GSK3B
T3 construct: made in house

[6] = target: T4, TRIM24 (Homo sapiens, UniProt O15164); assay: Liability panel screening by DSF: TRIM24; assay type: binding; details: DSF, 20 µM, n=2; read-out: Mean ΔTM TRIM24
T4 construct: This panel comprised ten highly ligandable kinases and bromodomains; made in house
T4 sequence (O15164 899-1004 limits assumed): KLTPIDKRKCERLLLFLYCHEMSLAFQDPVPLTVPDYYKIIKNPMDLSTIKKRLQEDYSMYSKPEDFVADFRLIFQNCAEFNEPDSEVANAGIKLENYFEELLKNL
Experimental: as §1, §2, §3, §4

[7] = target: T5, MAPK1 (Homo sapiens, UniProt P28482); assay: Liability panel screening by DSF: MAPK1; assay type: binding; details: DSF, 20 µM, n=2; read-out: Mean ΔTM MAPK1
T5 construct: made in house
Experimental: as §1, §2, §3, §4

[8] = target: T6, AURKA (Homo sapiens, UniProt O14965); assay: Liability panel screening by DSF: AURKA; assay type: binding; details: DSF, 20 µM, n=2; read-out: Mean ΔTM AURKA
T6 construct: made in house
T6 sequence (O14965 1-403): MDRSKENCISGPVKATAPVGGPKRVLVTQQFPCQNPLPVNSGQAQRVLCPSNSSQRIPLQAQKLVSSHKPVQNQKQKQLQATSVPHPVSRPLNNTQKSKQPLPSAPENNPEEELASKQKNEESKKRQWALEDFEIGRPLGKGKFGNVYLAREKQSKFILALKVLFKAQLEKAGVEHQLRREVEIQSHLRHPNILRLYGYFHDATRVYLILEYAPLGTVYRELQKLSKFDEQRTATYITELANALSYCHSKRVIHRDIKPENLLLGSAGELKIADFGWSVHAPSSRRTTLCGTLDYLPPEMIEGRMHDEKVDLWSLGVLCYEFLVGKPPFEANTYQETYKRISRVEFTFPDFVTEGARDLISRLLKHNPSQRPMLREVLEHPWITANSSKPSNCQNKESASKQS
Experimental: as §1, §2, §3, §4

[9] = target: T7, FGFR3 (Homo sapiens, UniProt P22607); assay: Liability panel screening by DSF: FGFR3; assay type: binding; details: DSF, 20 µM, n=2; read-out: Mean ΔTM FGFR3
T7 construct: made in house
Experimental: as §1, §2, §3, §4

[10] = target: T8, CDK2 (Homo sapiens, UniProt P24941); assay: Liability panel screening by DSF: CDK2; assay type: binding; details: DSF, 20 µM, n=2; read-out: Mean ΔTM CDK2
T8 construct: made in house
Experimental: as §1, §2, §3, §4

[11] = target: T9, BRPF1 (Homo sapiens, UniProt P55201); assay: Liability panel screening by DSF: BRPF1; assay type: binding; details: DSF, 20 µM, n=2; read-out: Mean ΔTM BRPF1
T9 construct: This panel comprised ten highly ligandable kinases and bromodomains; made in house
T9 sequence (P55201 628-732 limits assumed): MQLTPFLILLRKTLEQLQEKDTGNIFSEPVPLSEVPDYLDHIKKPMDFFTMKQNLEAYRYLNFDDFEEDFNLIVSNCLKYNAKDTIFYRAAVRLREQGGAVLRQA
Experimental: as §1, §2, §3, §4

[12] = target: T10, CSNK1D (Homo sapiens, UniProt P48730); assay: Liability panel screening by DSF: CSNK1D; assay type: binding; details: DSF, 20 µM, n=2; read-out: Mean ΔTM CSNK1D
T10 construct: made in house
Experimental: as §1, §2, §3, §4

[13] = system: ATF6 activity in Hela ATF6 reporter cells; assay: Endoplasmic reticulum stress assay (ATF6 Renilla luciferase reporter, tunicamycin); assay type: cell-based
Experimental: After 24 h, cells were incubated with the test compounds solubilized with 0.1% DMSO in the same medium without puromycin. After 4 h incubation, tunicamycin (100 ng/mL) was added. After another 18 h incubation, cells were assayed for renilla luminescence using DualGlo reagent (Promega) on a Tecan SPARK Cyto (Tecan). Test samples were normalized to the 0.1% DMSO control. Each sample was repeated in five biologically independent experiments.

[14] = system: HEK293T cells; assay: Cytotoxicity: metabolic activity (WST-8 / CCK-8 assay); details: 10 µM; HEK293T, 24 h; WST-8; normalized to 0.1% DMSO; single replicates
[15] = system: HEK293T cells; assay: Cytotoxicity: growth-rate (change in confluence over 24 h); details: 10 µM, normalized to 0.1% DMSO control, single replicates (n=1...)
[16] = system: HEK293T cells; assay: Cytotoxicity: necrosis induction (red fluorescent dye for permeable plasma membranes); assay type: cell-based; details: 10 µM, 24 h, necrotic cell count normalized to 0.1% DMSO, single replicates;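 note: compounds applied in DMEM high glucose with 0.1% FCS and 0.1% DMSO, necrotic HEK293T cells counted by red staining of cells whose plasma membranes had become permeable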
Experimental: Cells were incubated with the test compounds at the indicated concentrations solubilized with 0.1% DMSO for 24 h. […] Necrotic cells were detected with a red fluorescent dye that labels cells with permeable plasma membranes after 24 h treatment and the necrotic cell count was normalized to 0.1% DMSO treated cells (n = 4). e NR family selectivity profiling of NR3 CG compound candidates in uniform Gal4-hybrid reporter gene assays for selected NR representing the NR1, NR2, NR4 and NR5 families.
HEK293T cells (German Collection of Microorganisms and Cell Culture GmbH, DSMZ; #ACC305) were cultured in DMEM high glucose, supplemented with 10% fetal calf serum (FCS), sodium pyruvate (1 mM), penicillin (100 µ/mL) and streptomycin (100 µg/mL) at 37 °C and 5% (v/v) CO2, and seeded in pre-coated (10 µg/mL collagen G solution (Merck KgaA; #L7213) for 30 min at 37 °C) 96-well plates (2 × 10^5 cells per well). After 24 h, the cells were treated with the respective NR3 CG compound candidate at the recommended concentration, bexarotene (100 µM) or doxorubicin (30 µM) as positive controls in DMEM high glucose supplemented with 0.1% FCS, penicillin (100 µ/mL), streptomycin (100 µg/mL) and 0.1% DMSO, or 0.1% DMSO alone as an untreated control. Each sample was prepared in at least four biologically independent replicates. […] Before drug administration, after the first medium exchange, 24 h after drug administration, and after fluorescence imaging cell confluence was assessed using the Tecan Spark Cyto, to account for changes in cell confluence due to drug administration and cell handling. Compound effects on cell confluence, apoptosis, metabolic activity and necrosis were normalized to the vehicle control of each biological replicate individually.

T1 sequence (P00519 whole entry, species assumed): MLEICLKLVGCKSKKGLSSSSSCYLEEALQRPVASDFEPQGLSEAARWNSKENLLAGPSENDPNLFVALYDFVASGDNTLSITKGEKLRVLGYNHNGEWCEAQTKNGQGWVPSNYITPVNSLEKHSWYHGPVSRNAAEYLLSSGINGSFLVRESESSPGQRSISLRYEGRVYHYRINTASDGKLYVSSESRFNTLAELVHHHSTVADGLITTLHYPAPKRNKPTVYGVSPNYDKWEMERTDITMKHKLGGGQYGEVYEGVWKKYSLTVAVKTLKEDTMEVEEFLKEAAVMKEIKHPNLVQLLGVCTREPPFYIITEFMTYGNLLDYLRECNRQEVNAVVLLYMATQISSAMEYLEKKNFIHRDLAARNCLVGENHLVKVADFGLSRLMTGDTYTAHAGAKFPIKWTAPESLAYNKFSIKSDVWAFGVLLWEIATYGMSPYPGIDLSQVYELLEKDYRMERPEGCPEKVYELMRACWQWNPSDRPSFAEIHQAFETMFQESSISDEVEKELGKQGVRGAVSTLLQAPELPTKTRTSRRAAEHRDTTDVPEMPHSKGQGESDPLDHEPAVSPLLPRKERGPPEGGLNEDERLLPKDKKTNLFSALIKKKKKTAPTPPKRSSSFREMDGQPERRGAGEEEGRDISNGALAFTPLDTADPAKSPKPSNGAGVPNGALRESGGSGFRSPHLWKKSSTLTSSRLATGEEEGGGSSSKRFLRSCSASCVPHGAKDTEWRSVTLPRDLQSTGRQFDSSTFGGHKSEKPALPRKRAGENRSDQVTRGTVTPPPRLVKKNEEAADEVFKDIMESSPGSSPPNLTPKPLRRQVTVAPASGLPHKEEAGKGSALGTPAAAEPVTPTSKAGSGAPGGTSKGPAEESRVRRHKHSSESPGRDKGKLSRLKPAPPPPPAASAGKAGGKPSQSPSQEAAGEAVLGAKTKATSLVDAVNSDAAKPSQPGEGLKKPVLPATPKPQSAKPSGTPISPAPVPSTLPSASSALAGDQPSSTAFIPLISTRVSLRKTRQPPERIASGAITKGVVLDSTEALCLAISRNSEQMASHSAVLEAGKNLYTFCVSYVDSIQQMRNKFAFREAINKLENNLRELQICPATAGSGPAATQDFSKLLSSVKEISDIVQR
T5 sequence (P28482 whole entry, species assumed): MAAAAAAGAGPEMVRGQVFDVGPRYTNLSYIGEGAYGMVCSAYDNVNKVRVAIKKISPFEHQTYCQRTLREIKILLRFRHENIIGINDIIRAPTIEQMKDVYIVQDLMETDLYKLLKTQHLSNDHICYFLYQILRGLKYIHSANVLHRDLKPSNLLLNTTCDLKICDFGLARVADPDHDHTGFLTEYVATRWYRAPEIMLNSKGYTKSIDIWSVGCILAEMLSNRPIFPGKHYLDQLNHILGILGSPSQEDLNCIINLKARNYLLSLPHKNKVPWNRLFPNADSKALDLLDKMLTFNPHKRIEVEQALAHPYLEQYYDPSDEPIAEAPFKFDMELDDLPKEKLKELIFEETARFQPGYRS
T10 sequence (P48730 whole entry, species assumed): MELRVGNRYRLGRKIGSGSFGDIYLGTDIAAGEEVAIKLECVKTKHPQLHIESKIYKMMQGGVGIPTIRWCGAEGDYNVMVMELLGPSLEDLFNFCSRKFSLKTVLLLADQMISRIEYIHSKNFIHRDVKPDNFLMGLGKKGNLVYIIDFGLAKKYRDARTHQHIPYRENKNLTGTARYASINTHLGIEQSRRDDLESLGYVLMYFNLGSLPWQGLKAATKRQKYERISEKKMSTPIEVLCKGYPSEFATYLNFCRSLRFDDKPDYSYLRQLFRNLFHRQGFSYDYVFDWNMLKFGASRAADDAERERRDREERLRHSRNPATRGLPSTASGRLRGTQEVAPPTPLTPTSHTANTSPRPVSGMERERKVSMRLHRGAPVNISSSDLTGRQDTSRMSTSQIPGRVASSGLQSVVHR
T7 sequence (P22607 23-806, species assumed): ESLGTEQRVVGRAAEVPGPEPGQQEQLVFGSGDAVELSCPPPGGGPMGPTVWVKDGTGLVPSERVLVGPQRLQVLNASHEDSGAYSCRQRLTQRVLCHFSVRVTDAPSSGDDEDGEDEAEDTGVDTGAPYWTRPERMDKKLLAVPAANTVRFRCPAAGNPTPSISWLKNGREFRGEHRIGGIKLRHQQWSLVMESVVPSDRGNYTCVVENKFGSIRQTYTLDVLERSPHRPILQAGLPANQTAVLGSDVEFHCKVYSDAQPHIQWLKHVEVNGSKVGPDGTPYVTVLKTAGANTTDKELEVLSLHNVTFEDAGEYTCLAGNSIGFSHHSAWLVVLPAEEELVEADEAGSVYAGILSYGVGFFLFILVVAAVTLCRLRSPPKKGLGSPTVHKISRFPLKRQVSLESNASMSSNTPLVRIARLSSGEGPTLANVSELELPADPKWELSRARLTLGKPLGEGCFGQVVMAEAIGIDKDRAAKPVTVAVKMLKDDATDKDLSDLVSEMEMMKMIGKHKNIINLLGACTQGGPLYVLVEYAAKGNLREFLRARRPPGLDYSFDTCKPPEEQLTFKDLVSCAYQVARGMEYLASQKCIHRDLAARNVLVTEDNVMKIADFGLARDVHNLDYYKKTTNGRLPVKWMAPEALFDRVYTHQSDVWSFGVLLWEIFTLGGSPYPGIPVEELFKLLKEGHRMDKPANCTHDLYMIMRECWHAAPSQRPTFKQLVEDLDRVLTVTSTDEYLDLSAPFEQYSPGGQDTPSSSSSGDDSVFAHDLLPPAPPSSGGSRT
T3 sequence (P49841 whole entry, species assumed): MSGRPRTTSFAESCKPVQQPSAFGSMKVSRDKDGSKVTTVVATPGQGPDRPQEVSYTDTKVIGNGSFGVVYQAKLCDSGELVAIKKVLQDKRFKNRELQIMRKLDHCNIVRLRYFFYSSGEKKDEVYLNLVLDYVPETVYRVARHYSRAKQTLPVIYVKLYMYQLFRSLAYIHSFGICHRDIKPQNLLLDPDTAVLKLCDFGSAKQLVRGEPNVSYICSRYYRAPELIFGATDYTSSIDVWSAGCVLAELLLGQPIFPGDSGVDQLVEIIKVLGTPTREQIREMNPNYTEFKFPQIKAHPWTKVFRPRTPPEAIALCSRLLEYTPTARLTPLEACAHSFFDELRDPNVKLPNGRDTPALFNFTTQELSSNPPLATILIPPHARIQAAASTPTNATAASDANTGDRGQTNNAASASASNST

In the case of `CN(C)CCOc1ccc(/C(=C(/CCCO)c2ccccc2)c2ccc(O)cc2)cc1` [GSK5182], the ΔTm at 20 µM [1] is reported as 0.43 °C, the “Mean NFκB response” value ([2]; 10 µM, 1,5 h) is reported as 4124.00 GFP+-cells/confluence ∙ 1000 and the “Mean NFκB response” value ([2]; 10 µM, 4,5 h) is reported as 4518.85 GFP+-cells/confluence ∙ 1000. For the same molecule, the “Mean NFκB response” value ([2]; 10 µM, 7,5 h) was 8291.63 GFP+-cells/confluence ∙ 1000, the “Mean NFκB response” value ([2]; 10 µM, 10,5 h) was 18033.90 GFP+-cells/confluence ∙ 1000 and the “Mean NFκB response” value ([2]; 10 µM, 13,5 h) was 26386.99 GFP+-cells/confluence ∙ 1000. The “Mean NFκB response” value ([2]; 10 µM, 16,6 h) was 32458.21 GFP+-cells/confluence ∙ 1000, the “Mean NFκB response” value ([2]; 10 µM, 19,5 h) was 36483.54 GFP+-cells/confluence ∙ 1000 and the “Mean NFκB response” value ([2]; 10 µM, 22,5 h) was 40081.60 GFP+-cells/confluence ∙ 1000. For the same molecule, the “Mean NFκB response” value ([2]; 10 µM, 3 h) was 4121.32 GFP+-cells/confluence ∙ 1000, the “Mean NFκB response” value ([2]; 10 µM, 6 h) was 5330.81 GFP+-cells/confluence ∙ 1000 and the “Mean NFκB response” value ([2]; 10 µM, 9 h) was 13339.51 GFP+-cells/confluence ∙ 1000. For the same molecule, the “Mean NFκB response” value ([2]; 10 µM, 12 h) was 22208.27 GFP+-cells/confluence ∙ 1000, the “Mean NFκB response” value ([2]; 10 µM, 15 h) was 29794.15 GFP+-cells/confluence ∙ 1000 and the “Mean NFκB response” value ([2]; 10 µM, 18 h) was 34711.23 GFP+-cells/confluence ∙ 1000. For the same molecule, the “Mean NFκB response” value ([2]; 10 µM, 21 h) was 38030.00 GFP+-cells/confluence ∙ 1000, the “Mean NFκB response” value ([2]; 10 µM, 24 h) was 41021.29 GFP+-cells/confluence ∙ 1000 and the “Apoptosis induction [AI]” value [3] was 0.95 and 1.15 and 0.71 and 1.22 (2×) and 1.40. The ΔTm at 20 µM [4] was -2.92 °C, the ΔTm at 20 µM [5] was -1.96 °C and the ΔTm at 20 µM [6] was -0.25 °C. The ΔTm at 20 µM [7] was 0.14 °C, the ΔTm at 20 µM [8] was -0.17 °C and the ΔTm at 20 µM [9] was 0.62 °C. For the same molecule, the ΔTm at 20 µM [10] was 0.68 °C, the ΔTm at 20 µM [11] was -1.74 °C and the ΔTm at 20 µM [12] was -0.68 °C. The “ATF6 activity (tunicamycin-induced endoplasmic reticulum stress)” value ([13]; Hela ATF6 reporter cells, tunicamycin 100 ng/mL, 18 h, compounds at recommended concentrations, n = 5) was “lacked this effect”, the activity at 10 µM ([13]; Homo sapiens, HeLa, 10 µM, single replicates n=1 to n=5, read-out: ER stress [rel. ATF6 activity]) was 88% and the “Metabolic activity [MA]” value [14] was 0.99 and 0.91 (2×) and 0.85 and 1.04 and 1.01 and 0.95 and 0.93. The “Growth rate [GR]” value [15] was 0.52 and 3.08 and 0.59 and 0.82 and 0.68 and 0.29 and 0.42 and 1.20 and 1.31 and 8.43 and the “Necrosis induction [NI]” value [16] was 0.56 and 0.11 and 0.30 and 0.25.
